Data published in ChEMBL document CHEMBL1201862, “PubChem BioAssay data set” (2004).
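Compound exposure: 48 hours, 5 concentrations, 96-well plates. GI50: concentration for 50% inhibition of growth.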 Active and inactive are the calls of the source. Rule as the data show it: active = GI50 up to about 1.1 µM and inactive = higher.

Experiments:
Experiment in all cases: NCI-60 cell line screen, 48 h
[1] = test system: DLD-1
[2] = test system: DMS-114
[3] = test system: DMS-273
[4] = test system: KM-20L2
[5] = test system: LXFL 529
[6] = test system: M19-MEL
[7] = test system: SNB-78
[8] = test system: RXF 631
[9] = test system: XF498

Measured: GI50

CCOC(=O)c1c[nH]c2c(ccc3ncccc32)c1=O
inactive: [1] > 100 µM | [2] > 100 µM | [3] > 100 µM | [4] > 100 µM | [5] > 100 µM | [6] > 100 µM | [7] > 100 µM

Cc1c(O)c(=O)ccn1CCN
inactive: [1] > 100 µM | [2] > 100 µM | [3] > 100 µM | [4] > 100 µM | [5] > 100 µM | [6] > 100 µM | [8] > 100 µM | [7] > 100 µM

O=C1CCC(=O)C12CCc1cccc(O)c12
inactive: [1] > 100 µM | [2] > 100 µM | [3] > 100 µM | [4] > 100 µM | [5] > 100 µM | [6] > 100 µM | [7] > 100 µM | [9] > 100 µM

O[C@]12CCCC[C@H]1CCC2
inactive: [2] > 100 µM | [3] > 100 µM | [5] > 100 µM | [6] > 100 µM | [8] > 100 µM | [7] > 100 µM | [9] > 100 µM

Cc1c2ccncc2c(C)c2c1[nH]c1ccc(Oc3ccccc3)cc12
inactive: [1] 2.37 µM | [2] 2.3 µM | [3] 1.76 µM | [4] 1.87 µM | [5] 2.04 µM | [6] 2.43 µM | [8] 2.57 µM | [7] 2.28 µM | [9] 1.45 µM

CCOc1ccc(O)cc1[P+](c1ccccc1)(c1ccccc1)c1ccccc1
inactive: [1] 4.14 µM | [3] 2.16 µM | [4] 2.46 µM | [5] 1.37 µM | [6] 3.05 µM | [7] 4.15 µM | [9] 1.16 µM

C/C(=N\N=C(\N)S)c1ccc(Oc2ccccc2)cc1
inactive: [1] 3.44 µM | [2] 3.03 µM | [3] 5.96 µM | [4] 10.7 µM | [5] 3.96 µM | [6] 15.1 µM | [8] 13.8 µM | [7] 14.2 µM

COc1ccc(OC)c(NC(=O)C2=C(C)NC(C)=C(C(=O)Nc3cc(OC)ccc3OC)C2c2ccco2)c1
inactive: [1] > 100 µM | [2] > 100 µM | [3] 95.9 µM | [4] > 100 µM | [5] > 100 µM | [6] > 100 µM | [7] > 100 µM | [9] > 100 µM

O=C(C#Cc1ccccc1)Nc1ccccc1CC(c1c[nH]c2ccccc12)c1c[nH]c2ccccc12
inactive: [1] 17 µM | [3] 11.3 µM | [5] 6.35 µM | [6] 16.4 µM | [8] 21.3 µM | [7] 11.5 µM | [9] 29.4 µM

O=c1ncc(F)cn1C1OC(CO)C(O)C1O (centres undefined)
inactive: [1] > 35.8 µM | [2] > 21.2 µM | [3] 16.7 µM | [4] > 32.9 µM | [6] > 24.6 µM | [8] 41.6 µM | [7] > 29.7 µM | [9] > 100 µM

Cc1ccc(O)c(/N=N/c2ccc(S(=O)(=O)O)cc2)n1
inactive: [1] > 100 µM | [2] > 100 µM | [3] > 100 µM | [4] > 100 µM | [5] > 100 µM | [6] > 100 µM

CCCOC(=O)C1CCC(=O)N1C(=O)C(C)Cl (centres undefined)
inactive: [1] > 100 µM | [2] > 100 µM | [3] > 100 µM | [4] > 100 µM | [5] > 100 µM | [6] > 100 µM | [7] > 100 µM | [9] > 100 µM

CC1=C(N(C)C)C(=O)c2nc3n(c2C1=O)CCC3OC(N)=O (centres undefined)
inactive: [1] 16.2 µM | [2] 16.1 µM | [3] 15.8 µM | [4] 20.2 µM | [6] 1.7 µM | [7] 23 µM | [9] 23.9 µM

O=C1/C(=C/c2ccc3c(c2)OCO3)CCC1CN1CCOCC1 (centres undefined)
inactive: [1] 2.39 µM | [2] 5.83 µM | [3] 8.79 µM | [4] 14.8 µM | [5] 2.65 µM | [6] 4.53 µM | [8] 15.8 µM | [7] 9.66 µM

CC12OC(=O)C(C#N)C1(C)C1C(=O)CCCC12 (centres undefined)
inactive: [1] > 100 µM | [2] > 100 µM | [3] > 100 µM | [4] > 100 µM | [5] > 100 µM | [6] > 100 µM | [9] > 100 µM

COC(=O)CC(C(C(=O)OC)C(=O)OC)N1C(=O)OC(c2ccccc2)C1c1ccccc1 (centres undefined)
inactive: [1] 68.5 µM | [2] 45.6 µM | [3] > 100 µM | [4] > 100 µM | [5] > 100 µM | [6] > 100 µM
